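Protocol summary: plate cells (96-well), add compound at 5 concentrations, incubate 48 h, interpolate endpoints linearly. GI50: concentration for 50% inhibition of growth.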 Activity calls are given as the source filed them. Rule as the data show it: active = GI50 up to about 1.1 µM and inactive = higher.

Test systems include SNB-19; NCI-H226; SR; KM12; COLO 205; SK-MEL-2; SN12C; OVCAR-4; RPMI-8226; RXF 393; NCI-H522; HT-29; T47D; HOP-92; SNB-75; 786-0; K562; Hs-578T; OVCAR-8; SF-539.
Holding throughout (assay): NCI anticancer screen, dose series, 48 h

For `CC(C)C(N)(C(=O)O)c1ccccc1` (centres undefined), the GI50 in the assay on SNB-19, with NCI-H226, with SR, in the assay with KM12, in the assay with COLO 205 and with SK-MEL-2 was > 100 µM (inactive) throughout. Further, the GI50 in the assay with SN12C, with OVCAR-4, in the assay on RPMI-8226, with RXF 393, in the assay with NCI-H522 and with HT-29 was > 100 µM (inactive) throughout. Further, the GI50 in the assay with T47D, in the assay on HOP-92, in the assay on SNB-75, in the assay on 786-0, with K562 and in the assay with Hs-578T was > 100 µM (inactive) throughout. For the same compound, the GI50 in the assay on OVCAR-8 is > 100 µM (inactive).

With `CC1(C)C=C(/C=N/Nc2ccc(Br)cc2)C(C#N)=C(O)C1(C#N)C#N`, the GI50 is > 100 µM (inactive) in the assay on SNB-19; 88.3 µM (inactive) with NCI-H226; 26.4 µM (inactive) with SR; 29.9 µM (inactive) with KM12; 19.8 µM (inactive) in the assay on COLO 205; 59.8 µM (inactive) in the assay on SN12C. In addition, the GI50 in the assay on OVCAR-4 is 40 µM (inactive); with RPMI-8226 it was 38.5 µM (inactive); with RXF 393 it was 33.8 µM (inactive); in the assay on SF-539, 55.2 µM (inactive); in the assay with NCI-H522 it was 75.9 µM (inactive); in the assay with HT-29 it was 40.8 µM (inactive). Also, the GI50 is 40.9 µM (inactive) in the assay with T47D; 22.4 µM (inactive) in the assay on HOP-92; 66.4 µM (inactive) with SNB-75; 47.2 µM (inactive) in the assay on 786-0; 17.7 µM (inactive) in the assay on K562; 63.8 µM (inactive) in the assay on Hs-578T. The GI50 in the assay with OVCAR-8 is 52.5 µM (inactive).

With `CCc1ncnc2cc(OCC3CO3)c(OC)cc12` (centres undefined), the GI50 in the assay on SNB-19 is 6.52 µM (inactive); in the assay with NCI-H226, 6.49 µM (inactive); in the assay on SR, 0.209 µM (active); with KM12 it was 5.58 µM (inactive); in the assay with COLO 205 it was 8.17 µM (inactive); with SK-MEL-2, 3.32 µM (inactive). The GI50 in the assay with SN12C was 1.3 µM (inactive); in the assay on OVCAR-4 it was 6.38 µM (inactive); with RXF 393 it was 2.28 µM (inactive); with SF-539, 5.98 µM (inactive); with NCI-H522, 2.31 µM (inactive); with HT-29, 4.83 µM (inactive). Besides, the GI50 with T47D is 20.9 µM (inactive); with HOP-92, 4.26 µM (inactive); in the assay with SNB-75, 17.3 µM (inactive); with 786-0, 0.902 µM (active); in the assay on K562, 1.1 µM (active); in the assay with Hs-578T, 5.77 µM (inactive). Further, in the assay with OVCAR-8, the GI50 is 0.647 µM (active).

Consider `O=CN(CCN1CCCC1)C1CCc2cc(Cl)c(Cl)cc2C1` (centres undefined), for which the GI50 is 0.851 µM (active) with SNB-19; 23.9 µM (inactive) in the assay with SR; 4.5 µM (inactive) in the assay on KM12; 20.4 µM (inactive) with COLO 205; 11 µM (inactive) in the assay on SN12C; 18.7 µM (inactive) with OVCAR-4. Further, the GI50 in the assay with RPMI-8226 was 20.6 µM (inactive); in the assay on RXF 393, 10.9 µM (inactive); in the assay on SF-539 it was 30.5 µM (inactive); in the assay with NCI-H522, 10.1 µM (inactive); in the assay on HT-29, 5.75 µM (inactive); with T47D it was 11.1 µM (inactive). The GI50 is 33.2 µM (inactive) with HOP-92; 7.55 µM (inactive) with 786-0; 20.9 µM (inactive) in the assay on K562; 13.6 µM (inactive) with Hs-578T; 20.6 µM (inactive) in the assay on OVCAR-8.

Regarding `CCOP(=O)(OCC)C(C)(CC)NC1=NC(C(F)(F)F)(C(F)(F)F)NC(=O)N1` (centres undefined), the GI50 is > 100 µM (inactive) in the assay with SNB-19; 11.3 µM (inactive) with NCI-H226; > 100 µM (inactive) in the assay on SR; > 100 µM (inactive) in the assay with KM12; > 100 µM (inactive) in the assay with COLO 205; > 100 µM (inactive) in the assay on SK-MEL-2. For the same compound, the GI50 in the assay with SN12C, in the assay with OVCAR-4, with RPMI-8226, in the assay with RXF 393, in the assay on SF-539 and in the assay with HT-29 was > 100 µM (inactive) each time. The GI50 in the assay on T47D was 82 µM (inactive); in the assay on HOP-92 it was > 100 µM (inactive); in the assay with SNB-75, > 100 µM (inactive); in the assay with 786-0, > 100 µM (inactive); in the assay with K562, > 100 µM (inactive); in the assay with Hs-578T, 29.8 µM (inactive). The GI50 in the assay on OVCAR-8 is > 100 µM (inactive).

For the compound `C/C(=N\N=C(\N)SB(F)F)c1ccc2ccccc2c1`, the GI50 is > 100 µM (inactive) in the assay on SNB-19; > 100 µM (inactive) in the assay on NCI-H226; 54.5 µM (inactive) in the assay with SR; > 100 µM (inactive) in the assay with KM12; > 100 µM (inactive) in the assay with COLO 205; > 100 µM (inactive) in the assay with SK-MEL-2. In addition, the GI50 in the assay with SN12C was > 100 µM (inactive); in the assay on OVCAR-4 it was > 100 µM (inactive); with RXF 393 it was 62.8 µM (inactive); with SF-539 it was > 100 µM (inactive); with NCI-H522, 25.6 µM (inactive); with HT-29, > 100 µM (inactive). Further, the GI50 in the assay on T47D, with HOP-92, with SNB-75, in the assay on 786-0, in the assay on K562 and in the assay with Hs-578T was > 100 µM (inactive) each time. Also, the GI50 in the assay on OVCAR-8 was > 100 µM (inactive).

With `CCOC(=O)c1c(N2CCOCC2)[nH]c(=O)c(C(c2ccc(OC)cc2)c2c(O)c(C(=O)OCC)c(N3CCOCC3)[nH]c2=O)c1O`, the GI50 with SNB-19, in the assay on NCI-H226, in the assay with SR, in the assay with KM12, in the assay with COLO 205 and with SN12C was > 100 µM (inactive) throughout. Besides, the GI50 in the assay with OVCAR-4, in the assay with RPMI-8226, with RXF 393, in the assay on SF-539, in the assay on NCI-H522 and in the assay with HT-29 was > 100 µM (inactive) throughout. Further, the GI50 in the assay on T47D, in the assay on HOP-92, in the assay with SNB-75, in the assay on 786-0, in the assay with K562 and with Hs-578T was > 100 µM (inactive) each time. For the same compound, in the assay on OVCAR-8, the GI50 was > 100 µM (inactive).

Regarding `Nc1nccc(NCC2(CO)CCC2)n1`, the GI50 with NCI-H226, with SR, in the assay on KM12, in the assay on COLO 205, in the assay with SK-MEL-2 and in the assay on SN12C was > 100 µM (inactive) throughout. Also, the GI50 in the assay on RPMI-8226, in the assay on RXF 393, with SF-539, in the assay on NCI-H522, in the assay on HT-29 and in the assay with T47D was > 100 µM (inactive) each time. In addition, the GI50 in the assay with HOP-92, in the assay with SNB-75, in the assay with 786-0, in the assay on K562, with Hs-578T and in the assay with OVCAR-8 was > 100 µM (inactive) throughout.

(Values after ChEMBL document CHEMBL1201862, “PubChem BioAssay data set” (2004).)
